Experimental data published in patent US20140005163A1 (NOVARTIS AG, priority 2010, published 2014).

Tests used:
PI3K alpha = target: T1, PI3K alpha (Homo sapiens, UniProt P42336); assay: PI3K alpha kinase assay (Kinase-Glo luminescence); assay type: biochemical
T1 construct: p85(iSH2) fusion partner (see partner chain) (N); His tag (C); made in house; host or cells: baculovirus; Tn5 (Trichoplusia ni) or TiniPro insect cells
Description: (§1) In a more preferred assay, the kinase reaction is performed in a final volume of 10 μL per well of a low volume non binding CORNING, 384 well black plate (Cat. No. #3676). The final concentrations of ATP and phosphatidyl inositol (PI) in the assay are 1 μM and 10 μg/mL respectively. The reaction is started by the addition of ATP.
(§2) The components of the assay are added per well as follows:
(§3) […] in 90% DMSO per well, in columns 1-20, 8 concentrations (1/3 and 1/3.33 serial dilution step) in single. • Low control: […] of 90% DMSO in half the wells of columns 23-24 (0.45% in final). • High control: […] of reference compound (e.g. compound of Example 7 in WO 2006/122806) in the other half of columns 23-24 (2.5 μM in final). • Standard: […] of reference compound as just mentioned diluted as the test compounds in columns 21-22 • 20 mL ‘buffer’ are prepared per assay: • 200 μL of 1M TRIS HCl pH7.5 (10 mM in final) • 60 μL of 1M MgCl2 (3 mM in final) • 500 μL of 2M NaCl (50 mM in final) • 100 μL of 10% CHAPS (0.05% in final) • 200 μL of 100 mM DTT (1 mM in final) • 18.94 mL of nanopure water • 10 mL ‘PI’ are prepared per assay: • 200 μL of 1 mg/ml L-alpha-Phosphatidylinositol (Liver Bovine, Avanti Polar Lipids Cat. No. 840042C MW=909.12) prepared in 3% OctylGlucoside (10 μg/ml in final) • 9.8 mL of ‘buffer’ • 10 mL ‘ATP’ are prepared per assay: • 6.7 μL of 3 mM stock of ATP giving a final concentration of 1 μM per well • 10 mL of ‘buffer’ • 2.5 mL of each PI3K construct are prepared per assay in ‘PI’ with the following final concentration: • 10 nM PI3K alfa EMV B1075 • 25 nM beta EMV BV949 • 10 nM delta EMV BV1060 • 150 nM gamma EMV BV950 • 5 μL of ‘PI/PI3K’ are added per well. • 5 μl ‘ATP’ are added per well to start the reaction. • The plates are then incubated at room temperature for 60 minutes (alfa, beta, delta) or 120 minutes (gamma). • The reaction is terminated by the addition of 10 μL Kinase-Glo (Promega Cat. No. #6714). • The assay plates are read after 10 minutes in Synergy 2 reader (BioTek, Vermont USA) with an integration time of 100 milliseconds and sensitivity set to 191. • Output: The High control is around 60'000 counts and the Low control is 30'000 or lower • This luminescence assay gives a useful Z′ ratio between 0.4 and 0.7
Two different constructs, BV 1052 and BV 1075, are used to generate the PI3 Kinase a proteins for compound screening.
(§4) IC50 is determined by a four parameter curve fitting routine that comes along with “excel fit”. […] Alternatively, IC50 values are calculated using idbsXLfit model 204, which is a 4 parameter logistic model.

PI3K delta = target: T2, PI3K delta (Homo sapiens, UniProt O00329); assay: PI3K delta kinase assay (Kinase-Glo luminescence); assay type: biochemical
T2 construct: for the full-length p110-d subunit are generated and fused by overlapping PCR; p85(iSH2) fusion partner (see partner chain) (N); His tag (C); made in house; host or cells: baculovirus; Tn5 (Trichoplusia ni) or TiniPro insect cells
Description: as §1, §2, §3
PI3Kγ BV-1060 p85(iSH2)-Gly Linker-p110d(Full-Length)-C-Term his Tag
as §4

mTOR = target: T3, mTOR (Homo sapiens, UniProt P42345); assay: Biochemical assay for m-TOR by TR-FRET; conditions: 8 μM ATP, 400 nM GFP-4EBP1, 0.5 nM mTOR
T3 construct: purchased Invitrogen Corporation (Carlsbad/CA, USA) PV4753
Description: Biochemical Assay for m-TOR by TR-FRET.
Assay components are purchased from Invitrogen Corporation (Carlsbad/CA, USA): GFP-4EBP1 (Cat. No. PV4759), Tb3+-α-p4EBP1 [pThr46] Antibody (Cat. No. PV4757), proprietary TR-FRET dilution buffer (Cat. No. PV3574), mTOR protein (Cat. No. PV4753).
Then 5 μL of ATP (8 μM final concentration) and GFP-4EBP1 (400 nM final concentration) with 5 μL mTOR proteins (0.5 nM final concentration) are incubated at rt. The standard reaction buffer for the TR-FRET mTOR assay contained 50 mM HEPES pH 7.5, 10 mM MnCl2, 50 mM NaCl, 1 mM EGTA, 1 mM DTT. Reactions were stopped with 10 μL of a mixture of EDTA containing the Tb3+-α-p4EBP1-[pT46] detection Ab (0.5 nM) in TR-FRET dilution buffer (proprietary to IVG). Plates are read 15 mins later in a Synergy2 reader using an integration time of 0.2 seconds and a delay of 0.1 seconds. […] A standard compound is used as a reference compound and included in all assay plates in the form of 16 dilution points in duplicate.

PI3K beta = target: T4, PI3K beta (Homo sapiens, UniProt P42338); assay: PI3K beta kinase assay (Kinase-Glo luminescence); assay type: biochemical
T4 construct: for the full-length p110-b subunit are generated and fused by overlapping PCR; p85(iSH2) fusion partner (see partner chain) (N); His tag (C); made in house; host or cells: baculovirus; Tn5 (Trichoplusia ni) or TiniPro insect cells
Description: as §1, §2, §3
PI3Kβ BV-949 p85(iSH2)-Gly Linker-p110b(Full-Length)-C-Term his Tag
as §4

[1] = system: PKB Ser473 phosphorylation in Rat1-myr-HA-p110 delta cells; assay: Reverse protein array assay, PKB Ser473 phosphorylation in Rat1-myr-p110 delta cells; assay type: cell-based; conditions: read-out: p-PKB IC50
Description: (§5) The Rat1-myr-HA-p110 alpha, beta and delta cells were trypsinized and counted with a CASY TT cell counter (Schärfe System GmbH, Reutlingen Germany). […] The plates were incubated at 37° C. and 5% CO2 under humidified condition for at least 20 h. Compound of formula I working solutions were prepared freshly as serial 8 step dilutions (vol/vol) in DMSO on the day of the experiment. […] The final DMSO concentration was kept constant at 0.2%. cell culture medium containing 0.2% DMSO was used as vehicle treatment control. Post incubation, the cells were treated with the serial compound dilution. 50 μl of the compound medium mixture was added to the wells containing cells and 150 μl DMEM medium and incubated for 30 minutes (37° C., 5% CO2). After 30 minutes of incubation, the medium mixture was quickly removed by aspiration. […] 50 μl of the described lysis buffer mix was added to each well, followed by 10 minutes of incubation on ice.
(§6) The samples were spotted onto ZeptoMARKt PWG protein microarray chips (Zeptosens, Witterswil, Switzerland) with the piezoelectric microdispense-based, non-contact Nano-Plotter 2.1 (GeSiM, Grosserkmannsdorf, Germany). Each sample was spotted at 4 different sample concentrations (d1=100%, d2=75%, d3=50%, d4=25%) by diluting the cell lysate with the corresponding volume of lysis buffer mix. After spotting the ZeptoMARK® protein microarrays, the chips are incubated for 1 hour at 37° C. […] After 20 minutes of blocking the chips are extensively rinsed with deionized water (Milli-Q quality, 18MΩ×cm) and dried in a nitrogen air flow.
(§7) After incubation, the arrays were washed twice with 200 μl CAB1 buffer. […] The fluorescence signal was assessed with exposure times of 1, 3, 5 and 10 seconds, depending on the intensity of the signal. The resulting four images taken per array are stored as 16-bit TIF files.
(§8) The fluorescence images for each array were analyzed with the ZeptoVIEW Pro 2.0 software (Zeptosens, Witterswil, Switzerland) and the relative fluorescence intensity for each signal was calculated.

[2] = system: PKB Ser473 phosphorylation in Rat1-myr-HA-p110 beta cells; assay: Reverse protein array assay, PKB Ser473 phosphorylation in Rat1-myr-p110 beta cells; assay type: cell-based; conditions: 0.5 h, pAkt Ser473, 30 minutes incubation, read-out: p-PKB IC50
Description: as §5, §6, §7, §8

[3] = system: PKB Ser473 phosphorylation in Rat1-myr-HA-p110 alpha cells; assay: Reverse protein array assay, PKB Ser473 phosphorylation in Rat1-myr-p110 alpha cells; assay type: cell-based; conditions: 0.5 h, pAkt Ser473, 30 minutes compound incubation, read-out: p-PKB IC50
Description: as §5, §6, §7, §8

[4] = system: S6 Ribosomal Protein phosphorylation Ser235/236 in TSC1 null mouse embryo fibroblast (MEF) cells; assay: Reverse protein array assay, S6 Ribosomal Protein phosphorylation Ser235/236 in TSC1 null MEF cells; assay type: cell-based; conditions: 1 h, pS6 ribosomal protein Ser235/236, 60 minutes incubation, read-out: p-S6 IC50
Description: as §5, with “TSC1−/−” for “Rat1-myr-HA-p110 alpha, beta and delta”, “(Schirfe” for “(Schärfe”, “Working” for “Compound of formula I working”, “0.02%.” for “0.2%.”, “0.02%” for “0.2%”, “60” for “30”
The spotting of the chips follows the previous described method.

T4 sequence (P42338 with tags, fused parts or gaps limits assumed): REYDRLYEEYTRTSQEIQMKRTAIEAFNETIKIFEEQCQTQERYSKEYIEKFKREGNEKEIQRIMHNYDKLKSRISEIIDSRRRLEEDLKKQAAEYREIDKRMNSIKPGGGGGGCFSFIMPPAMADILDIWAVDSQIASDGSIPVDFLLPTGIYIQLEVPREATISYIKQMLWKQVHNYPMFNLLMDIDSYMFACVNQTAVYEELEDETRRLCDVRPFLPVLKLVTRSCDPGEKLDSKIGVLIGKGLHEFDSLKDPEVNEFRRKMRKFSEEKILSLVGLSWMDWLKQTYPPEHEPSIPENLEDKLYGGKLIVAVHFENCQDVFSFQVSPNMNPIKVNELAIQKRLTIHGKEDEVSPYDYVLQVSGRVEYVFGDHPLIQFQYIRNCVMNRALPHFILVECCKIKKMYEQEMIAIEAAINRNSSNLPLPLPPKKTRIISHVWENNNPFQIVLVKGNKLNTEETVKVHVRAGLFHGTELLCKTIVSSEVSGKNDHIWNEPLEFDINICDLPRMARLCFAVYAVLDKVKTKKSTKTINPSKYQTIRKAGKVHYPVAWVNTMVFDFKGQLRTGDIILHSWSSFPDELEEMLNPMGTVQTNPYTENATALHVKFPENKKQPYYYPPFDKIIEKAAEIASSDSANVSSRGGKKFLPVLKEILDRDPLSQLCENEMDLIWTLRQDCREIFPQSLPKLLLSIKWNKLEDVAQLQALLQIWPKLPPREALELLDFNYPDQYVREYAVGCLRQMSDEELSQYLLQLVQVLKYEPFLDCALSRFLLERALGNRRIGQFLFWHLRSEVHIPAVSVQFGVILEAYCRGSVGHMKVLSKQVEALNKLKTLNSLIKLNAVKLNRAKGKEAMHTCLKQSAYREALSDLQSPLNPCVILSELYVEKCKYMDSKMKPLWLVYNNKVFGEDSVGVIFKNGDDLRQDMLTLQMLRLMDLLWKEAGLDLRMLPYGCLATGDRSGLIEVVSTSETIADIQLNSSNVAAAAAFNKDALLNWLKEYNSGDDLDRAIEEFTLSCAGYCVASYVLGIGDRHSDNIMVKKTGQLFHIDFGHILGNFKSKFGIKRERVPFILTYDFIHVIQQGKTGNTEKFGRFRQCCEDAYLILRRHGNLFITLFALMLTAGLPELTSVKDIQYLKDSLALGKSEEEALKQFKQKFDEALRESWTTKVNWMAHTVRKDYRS
T2 sequence (O00329 with tags, fused parts or gaps limits assumed): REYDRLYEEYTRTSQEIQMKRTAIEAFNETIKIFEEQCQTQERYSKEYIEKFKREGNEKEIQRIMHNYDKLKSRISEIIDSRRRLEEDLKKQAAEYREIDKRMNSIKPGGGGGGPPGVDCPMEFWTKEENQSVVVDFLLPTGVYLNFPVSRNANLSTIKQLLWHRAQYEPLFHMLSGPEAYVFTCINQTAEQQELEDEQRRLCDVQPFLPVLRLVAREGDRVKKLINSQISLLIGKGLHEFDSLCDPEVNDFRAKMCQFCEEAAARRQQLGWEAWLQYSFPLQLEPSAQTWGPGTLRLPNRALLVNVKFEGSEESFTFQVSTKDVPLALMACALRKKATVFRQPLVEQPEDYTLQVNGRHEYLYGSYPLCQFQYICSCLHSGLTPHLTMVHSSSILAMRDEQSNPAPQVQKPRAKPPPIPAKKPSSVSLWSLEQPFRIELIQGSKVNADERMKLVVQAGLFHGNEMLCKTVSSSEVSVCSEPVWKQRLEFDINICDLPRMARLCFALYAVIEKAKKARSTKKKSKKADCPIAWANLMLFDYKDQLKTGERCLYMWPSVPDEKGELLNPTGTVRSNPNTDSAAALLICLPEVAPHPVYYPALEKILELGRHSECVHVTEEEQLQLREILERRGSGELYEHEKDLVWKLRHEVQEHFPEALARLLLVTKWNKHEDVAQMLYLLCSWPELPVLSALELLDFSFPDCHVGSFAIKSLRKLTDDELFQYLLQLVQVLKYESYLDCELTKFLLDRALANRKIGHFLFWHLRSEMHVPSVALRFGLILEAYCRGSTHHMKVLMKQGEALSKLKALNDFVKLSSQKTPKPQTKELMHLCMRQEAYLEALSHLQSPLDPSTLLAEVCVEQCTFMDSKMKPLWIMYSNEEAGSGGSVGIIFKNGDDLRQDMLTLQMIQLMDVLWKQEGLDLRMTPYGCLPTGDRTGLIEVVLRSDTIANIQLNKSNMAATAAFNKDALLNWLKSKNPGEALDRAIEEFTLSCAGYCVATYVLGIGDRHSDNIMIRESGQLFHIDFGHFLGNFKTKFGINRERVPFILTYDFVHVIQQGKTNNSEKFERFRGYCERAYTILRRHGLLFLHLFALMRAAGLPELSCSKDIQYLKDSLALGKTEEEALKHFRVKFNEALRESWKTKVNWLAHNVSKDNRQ
T3 sequence (P42345 1360-2549 limits assumed): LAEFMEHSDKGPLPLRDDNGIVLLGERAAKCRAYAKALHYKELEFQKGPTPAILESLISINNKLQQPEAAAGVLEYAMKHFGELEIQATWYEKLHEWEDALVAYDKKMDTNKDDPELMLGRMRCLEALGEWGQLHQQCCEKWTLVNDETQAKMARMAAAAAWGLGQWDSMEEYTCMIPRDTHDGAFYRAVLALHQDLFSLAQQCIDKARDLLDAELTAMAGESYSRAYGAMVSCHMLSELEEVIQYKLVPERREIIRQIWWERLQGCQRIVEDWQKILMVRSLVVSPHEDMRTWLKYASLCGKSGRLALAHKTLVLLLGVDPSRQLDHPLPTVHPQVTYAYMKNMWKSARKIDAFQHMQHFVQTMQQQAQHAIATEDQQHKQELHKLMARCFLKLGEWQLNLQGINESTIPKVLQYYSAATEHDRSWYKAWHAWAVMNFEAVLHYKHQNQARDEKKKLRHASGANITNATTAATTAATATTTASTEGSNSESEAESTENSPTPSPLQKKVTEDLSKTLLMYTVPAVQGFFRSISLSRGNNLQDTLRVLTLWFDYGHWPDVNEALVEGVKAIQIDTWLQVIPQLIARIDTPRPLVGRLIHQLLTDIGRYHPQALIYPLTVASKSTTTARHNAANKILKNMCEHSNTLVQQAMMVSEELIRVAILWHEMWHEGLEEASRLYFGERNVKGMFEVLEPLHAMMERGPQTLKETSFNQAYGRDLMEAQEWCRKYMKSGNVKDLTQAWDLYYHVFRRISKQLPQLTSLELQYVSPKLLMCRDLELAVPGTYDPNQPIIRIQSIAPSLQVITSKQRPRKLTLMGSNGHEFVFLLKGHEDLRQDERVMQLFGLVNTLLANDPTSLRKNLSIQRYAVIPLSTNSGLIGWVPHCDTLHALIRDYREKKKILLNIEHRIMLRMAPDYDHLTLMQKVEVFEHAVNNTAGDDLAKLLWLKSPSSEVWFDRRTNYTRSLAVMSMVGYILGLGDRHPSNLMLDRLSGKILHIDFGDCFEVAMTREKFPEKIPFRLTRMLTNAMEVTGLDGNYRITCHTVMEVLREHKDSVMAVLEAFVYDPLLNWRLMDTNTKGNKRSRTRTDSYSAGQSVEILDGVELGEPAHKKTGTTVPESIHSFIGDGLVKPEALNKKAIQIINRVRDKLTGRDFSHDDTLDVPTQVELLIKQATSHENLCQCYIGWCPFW
T1 sequence (P42336 with tags, fused parts or gaps limits assumed): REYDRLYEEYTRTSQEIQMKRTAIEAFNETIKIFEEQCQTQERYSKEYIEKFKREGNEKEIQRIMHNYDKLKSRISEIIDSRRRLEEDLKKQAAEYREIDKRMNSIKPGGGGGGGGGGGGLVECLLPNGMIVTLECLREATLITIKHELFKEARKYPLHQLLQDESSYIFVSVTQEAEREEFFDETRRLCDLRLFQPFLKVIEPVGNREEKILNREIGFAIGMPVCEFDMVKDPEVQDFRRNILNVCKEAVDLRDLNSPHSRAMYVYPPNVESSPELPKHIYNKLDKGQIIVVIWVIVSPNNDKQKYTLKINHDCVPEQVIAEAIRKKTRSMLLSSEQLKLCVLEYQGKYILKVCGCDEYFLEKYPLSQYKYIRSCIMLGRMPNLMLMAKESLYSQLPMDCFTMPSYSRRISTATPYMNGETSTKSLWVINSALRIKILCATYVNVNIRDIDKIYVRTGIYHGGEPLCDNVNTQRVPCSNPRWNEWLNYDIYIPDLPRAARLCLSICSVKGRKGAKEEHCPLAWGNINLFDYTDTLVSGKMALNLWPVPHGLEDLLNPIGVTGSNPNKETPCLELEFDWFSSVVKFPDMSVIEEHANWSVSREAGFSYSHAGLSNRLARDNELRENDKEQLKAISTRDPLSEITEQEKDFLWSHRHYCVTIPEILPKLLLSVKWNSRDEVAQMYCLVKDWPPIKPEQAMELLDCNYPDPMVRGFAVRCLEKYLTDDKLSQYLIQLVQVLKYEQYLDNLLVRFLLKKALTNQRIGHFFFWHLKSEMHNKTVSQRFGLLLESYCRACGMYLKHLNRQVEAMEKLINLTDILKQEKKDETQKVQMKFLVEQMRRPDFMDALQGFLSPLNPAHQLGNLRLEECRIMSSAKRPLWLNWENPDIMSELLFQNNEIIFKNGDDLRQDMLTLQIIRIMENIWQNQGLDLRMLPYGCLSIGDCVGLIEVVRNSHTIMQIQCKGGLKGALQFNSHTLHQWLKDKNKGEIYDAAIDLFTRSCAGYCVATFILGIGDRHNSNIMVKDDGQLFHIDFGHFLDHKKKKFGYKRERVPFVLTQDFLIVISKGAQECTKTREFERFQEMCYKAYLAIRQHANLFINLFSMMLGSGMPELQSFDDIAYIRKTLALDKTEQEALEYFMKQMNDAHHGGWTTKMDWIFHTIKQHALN

| SMILES | IC50 (PI3K alpha) | IC50 (PI3K delta) | IC50 (mTOR) | IC50 (PI3K beta) | IC50 [1] | IC50 [2] | IC50 [3] | IC50 [4] |
| --- | --- | --- | --- | --- | --- | --- | --- | --- |
| Cc1ccc(-c2ccc3ncc4c(c3c2)n(-c2cc(C)nn2C)c(=O)n4C)cn1 [Example 7.1, 1-(2,5-Dimethyl-2H-pyrazol-3-yl)-3-methyl-8-(6-methyl-pyridin-3-yl)-1,3-dihydro-imidazo[4,5-c]quinolin-2-one] | 0.046 µM | 0.068 µM | 0.105 µM | 0.404 µM | – | – | – | – |
| CCn1c(=O)n(C)c2ncc(-c3ccc4ncc5c(c4c3)n(-c3cn(C)nc3C)c(=O)n5C)cc21 [Example 68, 1-(1,3-Dimethyl-1H-pyrazol-4-yl)-8-(1-ethyl-3-methyl-2-oxo-2,3-dihydro-1H-imidazo[4,5-b]pyridin-6-yl)-3-methyl-1,3-dihydro-imidazo[4,5-c]quinolin-2-one] | 0.021 µM | 0.029 µM | 0.462 µM | 0.061 µM | 0.071 µM | 0.092 µM | – | – |
| COc1nc2cc(-c3ccc4ncc5c(c4c3)n(-c3cn(C)nc3C)c(=O)n5C)cnc2n1C [Example 71, 1-(1,3-Dimethyl-1H-pyrazol-4-yl)-8-(2-methoxy-3-methyl-3H-imidazo[4,5-b]pyridin-6-yl)-3-methyl-1,3-dihydro-imidazo[4,5-c]quinolin-2-one] | – | 0.262 µM | 0.564 µM | – | 0.377 µM | 0.11 µM | 0.037 µM | 0.013 µM |
| CNc1ncc(-c2ccc3ncc4c(c3c2)n(-c2c(C)nn(C)c2C)c(=O)n4C)cc1COC [Example 248.5, 8-(5-Methoxymethyl-6-methylamino-pyridin-3-yl)-3-methyl-1-(1,3,5-trimethyl-1H-pyrazol-4-yl)-1,3-dihydro-imidazo[4,5-c]quinolin-2-one] | 0.032 µM | 0.014 µM | 0.565 µM | 0.144 µM | – | – | – | – |

Now those with a lower IC50 (PI3K delta), led by results:

| IC50 (PI3K alpha) | IC50 (PI3K delta) | IC50 (mTOR) | IC50 (PI3K beta) | IC50 [1] | IC50 [2] | IC50 [3] | SMILES | IC50 [4] |
| --- | --- | --- | --- | --- | --- | --- | --- | --- |
| 0.014 µM | 0.007 µM | 0.003 µM | 0.021 µM | – | – | – | CCn1cc(-n2c(=O)n(C)c3cnc4ccc(-c5cnc(CO)c(NC)c5)cc4c32)c(C)n1 [Example 158.5, 1-(1-Ethyl-3-methyl-1H-pyrazol-4-yl)-8-(6-hydroxymethyl-5-methylamino-pyridin-3-yl)-3-methyl-1,3-dihydro-imidazo[4,5-c]quinolin-2-one] | – |
| 0.02 µM | 0.004 µM | 0.113 µM | 0.071 µM | 0.073 µM | 0.081 µM | < 0.005 µM | CNc1ncc(-c2ccc3ncc4c(c3c2)n(-c2cn(C(C)C)nc2C)c(=O)n4C)cc1COC [Example 248.1, 1-(1-Isopropyl-3-methyl-1H-pyrazol-4-yl)-8-(5-methoxymethyl-6-methylamino-pyridin-3-yl)-3-methyl-1,3-dihydro-imidazo[4,5-c]quinolin-2-one] | – |
| 0.015 µM | 0.003 µM | < 0.003 µM | 0.009 µM | 0.005 µM | < 0.005 µM | < 0.005 µM | CCNc1cc(-c2ccc3ncc4c(c3c2)n(-c2cn(C)nc2C)c(=O)n4C)cnc1Cl [Example 153.2, 8-(6-Chloro-5-ethylamino-pyridin-3-yl)-1-(1,3-dimethyl-1H-pyrazol-4-yl)-3-methyl-1,3-dihydro-imidazo[4,5-c]quinolin-2-one] | – |
| 0.008 µM | 0.003 µM | 0.015 µM | 0.022 µM | – | – | – | CCn1cc(-n2c(=O)n(C)c3cnc4ccc(-c5cnc(NC)c(COC)c5)cc4c32)c(C)n1 [Example 248.2, 1-(1-Ethyl-3-methyl-1H-pyrazol-4-yl)-8-(5-methoxymethyl-6-methylamino-pyridin-3-yl)-3-methyl-1,3-dihydro-imidazo[4,5-c]quinolin-2-one] | – |
